The numbers were not newly measured in patent US9446004B2, “Transdermal nicotine salt delivery system” (ALZA Corporation, priority 2005, dated 2016), which cites them from elsewhere.

Like-named read-outs stand apart in the source and are kept apart here.

The term pKa denotes the pH at which an ionisable group is half protonated. As to `CN1CCCC1c1cccnc1` (centres unmarked) [Nicotine], the pKa entry is, setting by setting: (first pKa) “about 8”; (second pKa) approximately 3.
